Laboratory results reported in patent publication US8889699B2, “5-fluorouracil derivative” (Delta-Fly Pharma, Inc., priority 2009, dated 2014).
Like-named read-outs stand apart in the source and are kept apart here.

Columns and labels:
[1] = system: human gastric cancer strain (SC-2); conditions: 14 days, day 15, Test Example 3
Protocol: The resulting product was stirred with a stirrer at room temperature for about 10 minutes. […] Thereafter, ultrasonic treatment was performed under ice cooling for about 5 minutes, thereby obtaining a BOF-A2 drug liquid to be used at a dose of 14 mg/kg/day, 21 mg/kg/day, or 28 mg/kg/day. • (f) Experiment: The human gastric cancer strain (SC-2) was subcutaneously transplanted into the back of a BALB/cA-nu mouse and preliminarily proliferated therein. The proliferated strain was extracted, cut into about 2 mm square pieces with scissors in physiological saline, and subcutaneously inoculated to the right axillary region of mice of the same strain, 5 to 6 weeks of age, using a transplantation needle. […] Then, drug administration was initiated from the next day. Each of the test liquids shown in (a) to (e) above was administered orally to the mice in each of the test drug groups using a sonde for oral administration at a dose of 0.1 ml per 10 g body weight once a day for 14 continuous days. In the same manner as the above, the cancer-bearing mice in the control group were subjected to oral administration of only 0.5% HPMC liquid for 14 continuous days.
The tumor volume of each mouse in each group before the initiation of the treatment, on day 3, day 5, day 8 (1 week after), day 11, and day 15 (2 weeks after), i.e., after termination of the administration, was calculated using Equation 1 below, and respective relative tumor volume (RTV) relative to the tumor volume at the time of initiation of the treatment was calculated. In relation to the antitumor effect, the average value of the tumor proliferation inhibition ratio (IR; %) was calculated from the average tumor volume of each treatment group on day 15 (after termination of the treatment) relative to that of the control group on day 15, using Equation 2. […] Along therewith, a weight change ratio was calculated from the body weight of the mice at the time of the termination of the drug administration relative to the body weight of the mice at the time of the initiation of the administration, using Equation 3. […] Tumor volume(mm^3)=(major axis)×(minor axis)^2×½ Equation 1: Tumor proliferation inhibition ratio(IR, %)=[1−(average tumor volume of treatment group)/(average tumor volume of control group)]×100 Equation 2: Average weight change ratio(%)=[(average weight on Day 15)−(average weight on Day 1)]/(average weight on Day 1)×100 Equation 3: […]
The resulting product was stirred with a stirrer at room temperature for about 10 minutes. […] The proliferated strain was extracted, cut into about 2 mm square pieces with scissors in physiological saline, and subcutaneously inoculated to the right axillary region of mice of the same strain, 5 to 6 weeks of age, using a transplantation needle. […] Then, drug administration was initiated from the next day. Each of the test liquids shown in (a) to (c) above was administered orally to the mice in each of the test drug groups using a sonde for oral administration at a dose of 0.1 ml per 10 g body weight once a day for 14 continuous days. In the same manner as the above, the cancer-bearing mice in the control group were subjected to oral administration of only 0.5% HPMC liquid for 14 continuous days.
The tumor volume of each mouse in each group before the initiation of the treatment, on day 3, day 5, day 8 (1 week after), day 11, and day 15 (2 weeks after), i.e., after termination of the administration, was calculated using Equation 1 below, and respective relative tumor volume (RTV) relative to the tumor volume at the time of initiation of the treatment was calculated. In relation to the antitumor effect, the average value of the tumor proliferation inhibition ratio (IR; %) was calculated from the average tumor volume of each treatment group on day 15 (after termination of the treatment) relative to that of the control group on day 15, using Equation 2.

sarcoma 180 cells = assay: Inhibition of intracellular phosphorylation of 5-FU in cancer cells; format: cell-based, mouse; conditions: for inhibition at 10 µM / inhibition at 100 µM: Mus musculus, Sarcoma-180, 0.5 h
Protocol: (§1) • (a) Test liquid preparation 1: Compound I-2 or I-10 of the present invention was dissolved to a concentration of 1 mM in cold physiological saline. The resulting product was further diluted 10-fold with physiological saline, yielding a 100-μM solution. • (b) Test liquid preparation 2: As an OPRT inhibitor, which inhibits the phosphorylation of 5-FU, citrazinic acid (Citra.A.) was dissolved to a concentration of 1 mM in cold physiological saline, and further diluted 10-fold with physiological saline, yielding a 100-μM solution. • (c) Preparation of cancer cell suspension: Ascites-type sarcoma 180 cells were preliminarily transplanted intraperitoneally into an ICR mouse and proliferated therein for use in the test as raw (intact) cells. The proliferated cells were isolated and then washed with physiological saline. […] Immediately after the completion of the reaction, 4 mL of a cold Hanks solution was added to the reaction solution, and the cells were washed and separated by centrifugation. After this procedure was repeated twice, 2 mL of a cold 5% trichloroacetic acid (TCA) solution was added to the cell pellet to disrupt the cells, and 5-FU and its nucleotide metabolites were extracted. Subsequently, a portion of the nucleic acid extract was applied to a silica gel 60F254 plate and developed with a mixed liquid comprising chloroform-methanol-acetic acid (17:3:1) to isolate the nucleotide moiety. The radioactivity thereof was measured and the concentration of 5-FU phosphorylation was measured.
as §1, with “1: Compounds I-9, I-11, I-12, and I-13” for “1: Compound I-2 or I-10”, “invention were separately” for “invention was”, “saline. Each of the” for “saline. The”, “resulting products” for “resulting product”, “acid” for “acid (Citra.A.)”

[2] = Conc. 10 μM, 30 min. Incubation, 5-FU 2 μM, Table 6
[3] = Conc. 100 μM, 30 min. Incubation, 5-FU 2 μM, Table 6
[4] = Conc. 10 μM, 30 min. Incubation, 5-FU 2 μM, Table 6, read-out: Inhibition (%) of phosphorylation of 5-FU
[5] = Conc. 100 μM, 30 min. Incubation, 5-FU 2 μM, Table 6, read-out: Inhibition (%) of phosphorylation of 5-FU
[6] = concentration of 10 μM, reaction for 30 minutes, read-out: percent inhibition of intracellular phosphorylation of 5-FU
[7] = concentration of 100 μM, reaction for 30 minutes, read-out: percent inhibition of intracellular phosphorylation of 5-FU

Compound	RNA Fraction (sarcoma 180 cells; [2]) [pmol/1 × 10^7 cells]	RNA Fraction (sarcoma 180 cells; [3]) [pmol/1 × 10^7 cells]	inhibition at 10 µM (sarcoma 180 cells; [4]) [%]	inhibition at 100 µM (sarcoma 180 cells; [5]) [%]	inhibition at 10 µM (sarcoma 180 cells; [6]) [%]	inhibition at 100 µM (sarcoma 180 cells; [7]) [%]	also measured
CCOCn1cc(F)c(=O)n(C(=O)c2cccc(C(=O)Oc3nc(OC(=O)c4ccccc4)ccc3C#N)c2)c1=O [BOF-A2, reference compound]	–	–	–	–	–	–	Average weight change (%) ([1]; 14 mg/kg/day oral): 3.16%; Tumor proliferation inhibition ratio (%) ([1]; 14 mg/kg/day oral): 51.0%; Average weight change (%) ([1]; 21 mg/kg/day oral): −7.48%; Tumor proliferation inhibition ratio (%) ([1]; 21 mg/kg/day oral): 70.9%; Average weight change (%) ([1]; 28 mg/kg/day oral): −20.58%; Tumor proliferation inhibition ratio (%) ([1]; 28 mg/kg/day oral): 72.4%
CCOCn1cc(F)c(=O)n(C(=O)c2cccc(C(=O)Oc3cc(OC(=O)c4cc(OC(=O)C(C)(C)C)nc(OC(=O)C(C)(C)C)c4)c(Cl)cn3)c2)c1=O [Compound I-12, 3-{3-[4-(2,6-dipivaloyloxyisonicotinoyloxy)-5-chloro-2-pyridyloxycarbonyl]benzoyl}-1-ethoxymethyl-5-fluorouracil]	28.15	25.48	55.5	59.8	35 to 57	56 to 63	–
CCOCn1cc(F)c(=O)n(C(=O)c2cccc(C(=O)Oc3cc(O)c(Cl)cn3)c2)c1=O [Compound 8a, 3-{3-[4-hydroxy-5-chloro-2-pyridyloxycarbonyl]benzoyl}-1-ethoxymethyl-5-fluorouracil]	–	–	–	–	–	–	Average weight change (%) ([1]; 11.5 mg/kg/day oral): 0.34%; Tumor proliferation inhibition ratio (%) ([1]; 11.5 mg/kg/day oral): 52.8%; Average weight change (%) ([1]; 17.3 mg/kg/day oral): 2.32%; Tumor proliferation inhibition ratio (%) ([1]; 17.3 mg/kg/day oral): 58.1%; Average weight change (%) ([1]; 23.0 mg/kg/day oral): −18.11%; Tumor proliferation inhibition ratio (%) ([1]; 23.0 mg/kg/day oral): 77.7%
CCOCn1cc(F)c(=O)n(C(=O)c2cccc(C(=O)Oc3cc(OC(=O)c4ccc(OC(=O)c5ccccc5)nc4OC(=O)c4ccccc4)c(Cl)cn3)c2)c1=O [Compound I-13, 3-{3-[4-(2,6-dibenzoyloxynicotinoyloxy)-5-chloro-2-pyridyloxycarbonyl]benzoyl}-1-ethoxymethyl-5-fluorouracil]	26.63	25.68	58.1	59.4	35 to 57	56 to 63	–
